Measurements taken from ChEMBL document CHEMBL1201862, “PubChem BioAssay data set” (2004).
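Cells were grown in 96-well plates and exposed to each compound for 48 hours at five concentrations; endpoints were interpolated linearly between bracketing concentrations, or set to the highest concentration if not reached. GI50 is the concentration that inhibits growth by half.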 Activity calls are given as the source filed them. Rule as the data show it: active = GI50 up to about 1.1 µM and inactive = higher.

How the values were obtained:
Test in all cases: NCI-60 cell line screen, 48 h
SK-MEL-28 = system: SK-MEL-28
UO-31 = system: UO-31
HL-60 = system: HL-60
A498 = system: A498
COLO 205 = system: COLO 205
HOP-92 = system: HOP-92
SF-539 = system: SF-539
NCI-H460 = system: NCI-H460
T47D = system: T47D
SK-OV-3 = system: SK-OV-3
TK-10 = system: TK-10
SK-MEL-2 = system: SK-MEL-2
HT-29 = system: HT-29
OVCAR-8 = system: OVCAR-8
HCC 2998 = system: HCC 2998
LOX IMVI = system: LOX IMVI
Malme-3M = system: Malme-3M
M14 = system: M14
OVCAR-4 = system: OVCAR-4
HCT-15 = system: HCT-15

Compound | GI50 (SK-MEL-28) | GI50 (UO-31) | GI50 (HL-60) | GI50 (A498) | GI50 (COLO 205) | GI50 (HOP-92) | GI50 (SF-539) | GI50 (NCI-H460) | GI50 (T47D) | GI50 (SK-OV-3) | GI50 (TK-10) | GI50 (SK-MEL-2) | GI50 (HT-29) | GI50 (OVCAR-8) | GI50 (HCC 2998) | GI50 (LOX IMVI) | GI50 (Malme-3M) | GI50 (M14) | GI50 (OVCAR-4) | GI50 (HCT-15) [µM]
Cc1cn(C2OC(CO)C(O)C2F)c(=O)[nH]c1=O (stereo not given) | > 100 µM (inactive) | > 100 µM (inactive) | > 100 µM (inactive) | > 100 µM (inactive) | > 100 µM (inactive) | > 100 µM (inactive) | > 100 µM (inactive) | 21.7 µM (inactive) | > 100 µM (inactive) | > 100 µM (inactive) | > 100 µM (inactive) | > 100 µM (inactive) | > 100 µM (inactive) | > 100 µM (inactive) | > 100 µM (inactive) | 24.1 µM (inactive) | > 100 µM (inactive) | 41.8 µM (inactive) | > 100 µM (inactive) | > 100
COC(=O)C1=NN2c3ccccc3C(=O)OCCC2C1 (stereo not given) | > 100 µM (inactive) | > 100 µM (inactive) | > 100 µM (inactive) | > 100 µM (inactive) | > 100 µM (inactive) | 46.5 µM (inactive) | > 100 µM (inactive) | > 100 µM (inactive) | > 100 µM (inactive) | > 100 µM (inactive) | > 100 µM (inactive) | > 100 µM (inactive) | > 100 µM (inactive) | > 100 µM (inactive) | > 100 µM (inactive) | > 100 µM (inactive) | > 100 µM (inactive) | – | > 100 µM (inactive) | > 100
CCOC(=O)NC(NC1=NCCS1)(C(=O)OCC)C(F)(F)F (stereo not given) | > 100 µM (inactive) | > 100 µM (inactive) | > 100 µM (inactive) | > 100 µM (inactive) | > 100 µM (inactive) | > 100 µM (inactive) | > 100 µM (inactive) | > 100 µM (inactive) | > 100 µM (inactive) | > 100 µM (inactive) | > 100 µM (inactive) | > 100 µM (inactive) | > 100 µM (inactive) | > 100 µM (inactive) | > 100 µM (inactive) | > 100 µM (inactive) | > 100 µM (inactive) | > 100 µM (inactive) | > 100 µM (inactive) | > 100
COc1ccc(-c2cn3c(nc4ccccc43)c(/C=C/c3cccs3)n2)cc1 | 80 µM (inactive) | > 100 µM (inactive) | 20.4 µM (inactive) | > 100 µM (inactive) | 29.8 µM (inactive) | 16.9 µM (inactive) | 89.7 µM (inactive) | 32.4 µM (inactive) | 43.2 µM (inactive) | 75.2 µM (inactive) | > 100 µM (inactive) | 10.6 µM (inactive) | 29.8 µM (inactive) | – | 49.5 µM (inactive) | 35.3 µM (inactive) | 23.4 µM (inactive) | 37.8 µM (inactive) | 49.7 µM (inactive) | 26.7
N=c1oc2cc(O)ccc2cc1C(=O)Nc1cccc2ccccc12 | 6.34 µM (inactive) | 4.7 µM (inactive) | 2.11 µM (inactive) | 5.25 µM (inactive) | 15.2 µM (inactive) | 4.31 µM (inactive) | – | 4.02 µM (inactive) | 3.5 µM (inactive) | 6.65 µM (inactive) | 2.69 µM (inactive) | – | 7.6 µM (inactive) | 4.78 µM (inactive) | 3.71 µM (inactive) | 4.86 µM (inactive) | 0.883 µM (active) | 7 µM (inactive) | 7.01 µM (inactive) | 2.67
O=C1NC(Nc2ccccc2Cl)=N/C1=C\c1c(Cl)cccc1Cl | 51.8 µM (inactive) | 20.7 µM (inactive) | 18.6 µM (inactive) | 34.5 µM (inactive) | 27.7 µM (inactive) | 19.9 µM (inactive) | 51.5 µM (inactive) | 24.9 µM (inactive) | 28.6 µM (inactive) | 59.8 µM (inactive) | 30.9 µM (inactive) | 28.8 µM (inactive) | 31.6 µM (inactive) | 31.6 µM (inactive) | 21.9 µM (inactive) | 29.4 µM (inactive) | 31.1 µM (inactive) | 40.9 µM (inactive) | 11.6 µM (inactive) | 25.5
O=[N+]([O-])C(=C(N1CCOCC1)N1CCOCC1)/C(Cl)=C(\Cl)Br | 17.4 µM (inactive) | 18.4 µM (inactive) | 3.86 µM (inactive) | 37.4 µM (inactive) | 14.8 µM (inactive) | 16.2 µM (inactive) | 24.3 µM (inactive) | > 100 µM (inactive) | 15.7 µM (inactive) | – | – | 21.8 µM (inactive) | 26.8 µM (inactive) | 24.1 µM (inactive) | > 100 µM (inactive) | 19.3 µM (inactive) | 16.1 µM (inactive) | 13.4 µM (inactive) | 18.4 µM (inactive) | 15.2
CC(=O)Nc1cc(Cl)cc(Cl)c1O | > 100 µM (inactive) | > 100 µM (inactive) | > 100 µM (inactive) | > 100 µM (inactive) | > 100 µM (inactive) | > 100 µM (inactive) | > 100 µM (inactive) | > 100 µM (inactive) | > 100 µM (inactive) | > 100 µM (inactive) | > 100 µM (inactive) | > 100 µM (inactive) | > 100 µM (inactive) | > 100 µM (inactive) | > 100 µM (inactive) | – | > 100 µM (inactive) | > 100 µM (inactive) | > 100 µM (inactive) | > 100
COc1ccc(C2CC(C)(O)Oc3cc4c(cc32)OCO4)cc1 (stereo not given) | 45.6 µM (inactive) | 37.1 µM (inactive) | 17.6 µM (inactive) | 30.9 µM (inactive) | 19.7 µM (inactive) | 28.4 µM (inactive) | 38.9 µM (inactive) | 31.4 µM (inactive) | 2.02 µM (inactive) | – | 36.1 µM (inactive) | 15.8 µM (inactive) | 24.9 µM (inactive) | 35 µM (inactive) | 47.6 µM (inactive) | 27.2 µM (inactive) | 47.2 µM (inactive) | 36 µM (inactive) | 38.6 µM (inactive) | 23.8
COP(=O)(OC)C12CCOCCN1c1ccccc1C2=O (stereo not given) | > 100 µM (inactive) | > 100 µM (inactive) | > 100 µM (inactive) | > 100 µM (inactive) | > 100 µM (inactive) | > 100 µM (inactive) | > 100 µM (inactive) | > 100 µM (inactive) | > 100 µM (inactive) | > 100 µM (inactive) | > 100 µM (inactive) | > 100 µM (inactive) | > 100 µM (inactive) | > 100 µM (inactive) | > 100 µM (inactive) | – | > 100 µM (inactive) | > 100 µM (inactive) | > 100 µM (inactive) | > 100
COc1ccc2c(c1)C(=O)OCCC2 | > 100 µM (inactive) | 26.7 µM (inactive) | > 100 µM (inactive) | > 100 µM (inactive) | > 100 µM (inactive) | > 100 µM (inactive) | > 100 µM (inactive) | > 100 µM (inactive) | > 100 µM (inactive) | > 100 µM (inactive) | > 100 µM (inactive) | > 100 µM (inactive) | > 100 µM (inactive) | > 100 µM (inactive) | > 100 µM (inactive) | – | – | > 100 µM (inactive) | > 100 µM (inactive) | > 100
OC(c1ccc(F)cc1)C(F)(F)c1nc2ccccc2o1 (stereo not given) | > 100 µM (inactive) | > 100 µM (inactive) | > 100 µM (inactive) | 34.4 µM (inactive) | > 100 µM (inactive) | 21.7 µM (inactive) | > 100 µM (inactive) | > 100 µM (inactive) | 76 µM (inactive) | > 100 µM (inactive) | > 100 µM (inactive) | > 100 µM (inactive) | > 100 µM (inactive) | 51.2 µM (inactive) | > 100 µM (inactive) | > 100 µM (inactive) | – | > 100 µM (inactive) | > 100 µM (inactive) | > 100
N#CC1C(=S)NC(c2ccccc2)=CC12CCCCC2 (stereo not given) | 34.4 µM (inactive) | 25 µM (inactive) | 22.2 µM (inactive) | 22.8 µM (inactive) | 30.1 µM (inactive) | 18.6 µM (inactive) | 43 µM (inactive) | 94.8 µM (inactive) | 10.8 µM (inactive) | – | 23 µM (inactive) | 24 µM (inactive) | 27.6 µM (inactive) | 32.1 µM (inactive) | > 100 µM (inactive) | 18.6 µM (inactive) | 22.2 µM (inactive) | 26.1 µM (inactive) | 26.4 µM (inactive) | 19.9
CCOc1cc(NC(C)=O)ccc1C(=O)NNS(=O)(=O)c1ccc(Cl)cc1Cl | > 50 µM (inactive) | > 50 µM (inactive) | > 50 µM (inactive) | > 50 µM (inactive) | > 50 µM (inactive) | > 50 µM (inactive) | > 50 µM (inactive) | > 50 µM (inactive) | > 50 µM (inactive) | > 50 µM (inactive) | – | > 50 µM (inactive) | > 50 µM (inactive) | > 50 µM (inactive) | > 50 µM (inactive) | 45.5 µM (inactive) | > 50 µM (inactive) | > 50 µM (inactive) | > 50 µM (inactive) | > 50
O=C1CC(c2ccccc2)Oc2ccccc21 (stereo not given) [FLAVANONE] | > 100 µM (inactive) | 47.6 µM (inactive) | 21.5 µM (inactive) | 30.3 µM (inactive) | 33.6 µM (inactive) | 24.9 µM (inactive) | 21.8 µM (inactive) | 32.1 µM (inactive) | 35.8 µM (inactive) | 84.1 µM (inactive) | 76.4 µM (inactive) | 30.1 µM (inactive) | 28 µM (inactive) | 48.9 µM (inactive) | 76.9 µM (inactive) | 26.5 µM (inactive) | – | 51.9 µM (inactive) | 66.1 µM (inactive) | 26.1
